# Source: patent US20240182436A1, “SUBSTITUTED SULFONAMIDE-CHROMAN COMPOUNDS, AND PHARMACEUTICAL COMPOSITIONS, AND METHODS OF USE THEREOF” (priority 2021, published 2024)
# Tested on: Harmaline-induced tremor
# Assay: Harmaline-induced Tremor Model
# Format: in vivo
# Details: adult male CD1 mice, test article 30 mg/kg i.p., harmaline 30 mg/kg i.p.; for inhibition in vivo at 30 mg/kg: Mus musculus, ip, read-out: Tremor Suppression Activity (magnitude of tremor suppression in percent compared to vehicle)
# Source text: Harmaline-induced Tremor: Harmaline-induced tremor is widely recognized as an animal model of Essential Tremor (ET). Following acute administration, harmaline produces an 8-16 Hz tremor in rodents, cats, and monkeys that, like ET, is postural and kinetic, involving appendicular and axial musculature (Handforth, A. (2012). Harmaline tremor: underlying mechanisms in a potential animal model of essential tremor. Tremor and Other Hyperkinetic Movements (NY), 2, 02-92-769-1; Handforth, A. (2016). Linking Essential Tremor to the Cerebellum-Animal Model Evidence. Cerebellum, 15(3), 285-298; LeDoux, M. (2005). Harmaline tremor. In Movement Disorders. Elsevier Inc.; Louis, E. D. (2014). Re-thinking the biology of essential tremor: From models to morphology. Parkinsonism and Related Disorders, 20 (SUPPL.1), S88-S93). […] Clinical agents that suppress ET in patients are generally effective in the harmaline-induced tremor model (Handforth 2016). Following acute dosing of harmaline in mice, the tremor frequency (10-20 Hz) is typically recorded using an automated force plate-based system.
# Procedure: Tremor activity was measured using a custom-made testing apparatus containing a piezoelectric sensing platform which was connected to an amplifier (A-M Systems model 1700). Adult male CD1 mice were brought to the experiment room for acclimatization 1 h prior to testing. Mice were first placed inside the testing apparatus for 10 min baseline habituation. After the initial habituation, mice were treated with vehicle (10 ml/kg) or test article (30 mg/kg, i.p.) and placed back in the apparatus for an additional 20 min baseline recording. Subsequently, animals were injected with harmaline (30 mg/kg, i.p.) and tremor activity was measured for 20 min. The electric signal of tremor activity was amplified at a sampling rate of 512 Hz with a multichannel amplifier and then acquired, quantized, and digitized by a data acquisition unit (CED Micro 1401). The software Spike2 (v 7.07, Cambridge Electronic Design, Cambridge, UK) was used to analyze the tremor signal by performing Fourier transformation of the data into frequency spectra. Changes in absolute power were expressed relative to each animal's 20-min baseline for the frequencies of 10-20 Hz. Comparisons between treatment and respective vehicle groups were assessed with two-tailed, Student's t-test. The level of statistical significance was defined as p<0.05 (see, e.g., Table 2.1) The magnitude of tremor suppression in percent compared to vehicle is shown in Table 2.2.
# A tremor suppression score was defined as the magnitude of tremor suppression in percent compared to vehicle: ≤24% (D), 25-55% (C), 56-70% (B) and 71-100% (A). Not tested (---).
Compound,inhibition in vivo at 30 mg/kg,Tremor Suppression Activity (magnitude of tremor suppression in percent compared to vehicle)
"Cc1ccc2c(c1)OCCC2CS(N)(=O)=O (single isomer, unassigned) [Compound 57, (S*)-(7-methylchroman-4-yl)methanesulfonamide]",≤ 24%,–
"C[C@@H]1COc2cc(F)ccc2[C@H]1NS(N)(=O)=O (relative stereo) [Compound 76, (3(S*),4(S*))-7-fluoro-3-methyl-4-(sulfamoylamino)-3,4-dihydro-2(H)-chromene]",56 to 70%,–
"NS(=O)(=O)N[C@@H]1CCOc2cc(F)ccc21 (stereo in doubt) [Compound 72, 4(R*))-7-fluoro-4-(sulfamoylamino)-3,4-dihydro-2(H)-chromene]",25 to 55%,–
"CC1(C)COc2cc(F)ccc2C1CS(N)(=O)=O (single isomer, unassigned) [Compound 43, (S*)-(7-fluoro-3,3-dimethylchroman-4-yl)methanesulfonamide]",≤ 24%,–
"CC[C@H]([C@@H]1CCOc2cc(F)ccc21)S(N)(=O)=O (stereo in doubt) [Compound 26, (R*)-1-((R*)-7-fluorochroman-4-yl)propane-1-sulfonamide]",71 to 100%,–
"CN([C@H]1CCOc2cc(F)ccc21)S(N)(=O)=O (stereo in doubt) [Compound 69, 4(S*))-7-fluoro-4-[methyl(sulfamoyl)amino]-3,4-dihydro-2(H)-chromene]",≤ 24%,–
"NS(=O)(=O)CC1CCOc2cc(Cl)ccc21 (single isomer, unassigned) [Compound 31, (S*)-(7-chlorochroman-4-yl)methanesulfonamide]",71 to 100%,–
"NS(=O)(=O)N[C@H]1CCOc2cc(F)ccc21 (stereo in doubt) [Compound 71, 4(S*))-7-fluoro-4-(sulfamoylamino)-3,4-dihydro-2(H)-chromene]",56 to 70%,–
"NS(=O)(=O)CC1CCOc2cc(F)c(F)cc21 (single isomer, unassigned) [Compound 30, (R*)-(6,7-difluorochroman-4-yl)methanesulfonamide]",–,A (71-100% (A))
"CN([C@@H]1CCOc2cc(F)ccc21)S(N)(=O)=O (stereo in doubt) [Compound 70, 4(R*))-7-fluoro-4[methyl(sulfamoyl)amino]-3,4-dihydro-2(H)-chromene]",≤ 24%,–
"N#Cc1ccc2c(c1)OCCC2CS(N)(=O)=O (single isomer, unassigned) [Compound 60, (R*)-(7-cyanochroman-4-yl)methanesulfonamide]",–,C (25-55% (C))
"CC[C@@H]1COc2cc(F)ccc2[C@@H]1CS(N)(=O)=O (stereo in doubt) [Compound 20, ((3S*,4R*)-3-ethyl-7-fluorochroman-4-yl)methanesulfonamide]",71 to 100%,–
"NS(=O)(=O)C1(C2CCOc3cc(F)ccc32)CC1 (single isomer, unassigned) [Compound 27, (S*)-1-(7-fluorochroman-4-yl)cyclopropane-1-sulfonamide]",≤ 24%,–
"N#Cc1ccc2c(c1)OCCC2CS(N)(=O)=O (single isomer, unassigned) [Compound 59, (S*)-(7-cyanochroman-4-yl)methanesulfonamide]",≤ 24%,–
"C[C@H]1C[C@@H](CS(N)(=O)=O)c2ccccc2O1 (stereo in doubt) [Compound 34, ((2S*,4R*)-2-methylchroman-4-yl)methanesulfonamide]",56 to 70%,–
"CC1(C)CC(CS(N)(=O)=O)c2cc(F)c(F)cc2O1 (single isomer, unassigned) [Compound 6, (R*)-(6,7-difluoro-2,2-dimethylchroman-4-yl)methanesulfonamide]",–,A (71-100% (A))
